Earlier results as cited in patent US10196337B2, “Processes for the preparation of hydroxylated cyclohexyl compounds” (priority 2016, dated 2019).

Tested on: A2780 ovarian cancer cell line
Conditions: compounds isolated from bark extract of Pleiogynium timorense, literature ref. 1, read-out: IC50 against the A2780 ovarian cancer cell line

Molecule	IC50 [nM]
CCCCCCCC/C=C\CCCCCCC[C@]1(O)C(=O)C=C[C@H](O)[C@H]1O [compound 1, pleiogenone A]	800
pleiogenone C [compound 3]	800
pleiogenone B [compound 2]	700
